ChEMBL document CHEMBL1201862, “PubChem BioAssay data set” (2004)
The source made the active and inactive calls.

Key:
CHO-K1 = assay: (§1) Counterscreen for antagonists of the orexin 1 receptor (OX1R; HCRTR1): Homogeneous time resolved fluorescence (HTRF)-based cell-based dose response assay to identify antagonists of the parental CHO-K1 cell line. [Related pubchem assays (depositor defined):AID434989, AID435008, AID463079, AID485270, AID492963, AID492964, AID492965, AID493232, AID504699, AID504701]; assay type: functional; settings: Cricetulus griseus
[1] = as §1, with “Fluorescence-based” for “Homogeneous time resolved fluorescence (HTRF)-based”, “cell-based high throughput” for “cell-based”, “CHO” for “CHO-K1”; assay type: functional
[2] = molecular target: T1, Orexin/Hypocretin receptor type 1 (Homo sapiens, UniProt O43613); assay: Homogeneous Time Resolved Fluorescence (HTRF)-based cell-based high throughput dose response assay for antagonists of the orexin 1 receptor (OX1R; HCRTR1). [Related pubchem assays (depositor defined):AID434989, AID435008, AID463079, AID485270, AID492963, AID492964, AID492965, AID493232, AID504717, AID504718]; assay type: functional
T1 sequence (O43613 whole entry): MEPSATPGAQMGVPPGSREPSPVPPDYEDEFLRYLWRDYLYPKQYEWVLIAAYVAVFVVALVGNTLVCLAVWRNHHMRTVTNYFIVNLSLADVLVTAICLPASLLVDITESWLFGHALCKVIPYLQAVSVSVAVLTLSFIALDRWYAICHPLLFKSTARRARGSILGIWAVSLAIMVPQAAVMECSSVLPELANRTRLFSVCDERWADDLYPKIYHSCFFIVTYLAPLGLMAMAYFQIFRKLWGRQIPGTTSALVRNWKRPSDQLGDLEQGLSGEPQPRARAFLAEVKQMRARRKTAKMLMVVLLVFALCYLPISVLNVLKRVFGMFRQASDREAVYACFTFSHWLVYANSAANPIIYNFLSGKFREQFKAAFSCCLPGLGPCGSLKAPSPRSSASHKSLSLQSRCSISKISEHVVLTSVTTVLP

[3] = molecular target: T1, Orexin/Hypocretin receptor type 1; assay: Fluorescence-based cell-based high throughput dose response assay for antagonists of the orexin 1 receptor (OX1R; HCRTR1). [Related pubchem assays (depositor defined):AID434989, AID435008, AID463079, AID485270, AID492963, AID492964, AID492965, AID493232, AID504717, AID504718]; assay type: functional
Orexin receptor type 2 [4] = molecular target: T2, Orexin receptor type 2 (Homo sapiens, UniProt O43614); assay: Counterscreen assay for antagonists of the orexin 1 receptor (OX1R; HCRTR1): Fluorescence-based cell-based dose response assay for antagonists of the orexin 2 receptor (OX2R; HCRTR2), run by assay provider.; assay type: functional
T2 sequence (O43614 whole entry): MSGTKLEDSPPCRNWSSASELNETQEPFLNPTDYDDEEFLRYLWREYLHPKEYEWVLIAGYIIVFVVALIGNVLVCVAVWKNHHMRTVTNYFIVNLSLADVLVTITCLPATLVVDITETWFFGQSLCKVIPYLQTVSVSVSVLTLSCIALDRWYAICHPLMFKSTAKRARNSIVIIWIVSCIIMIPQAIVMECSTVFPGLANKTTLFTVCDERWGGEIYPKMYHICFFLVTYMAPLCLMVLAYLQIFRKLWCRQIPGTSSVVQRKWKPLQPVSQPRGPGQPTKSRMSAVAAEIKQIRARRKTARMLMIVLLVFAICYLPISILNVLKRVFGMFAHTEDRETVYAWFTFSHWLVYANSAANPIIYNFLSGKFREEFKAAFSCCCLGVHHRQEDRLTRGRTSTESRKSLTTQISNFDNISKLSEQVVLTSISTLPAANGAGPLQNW

Orexin receptor type 2 [5] = molecular target: T2, Orexin receptor type 2; assay: Counterscreen assay for antagonists of the orexin 1 receptor (OX1R; HCRTR1): Homogeneous Time Resolved Fluorescence (HTRF)-based cell-based dose response assay for antagonists of the orexin 2 receptor (OX2R; HCRTR2), run by assay provider.; assay type: functional
[6] = molecular target: T3, High affinity choline transporter 1 (Homo sapiens, UniProt Q9GZV3); assay: human choline transporter potentiators, potency – cell-based, 10-point CRC, membrane potential dye, dose response (AID 602376); assay type: functional
T3 sequence (Q9GZV3 whole entry): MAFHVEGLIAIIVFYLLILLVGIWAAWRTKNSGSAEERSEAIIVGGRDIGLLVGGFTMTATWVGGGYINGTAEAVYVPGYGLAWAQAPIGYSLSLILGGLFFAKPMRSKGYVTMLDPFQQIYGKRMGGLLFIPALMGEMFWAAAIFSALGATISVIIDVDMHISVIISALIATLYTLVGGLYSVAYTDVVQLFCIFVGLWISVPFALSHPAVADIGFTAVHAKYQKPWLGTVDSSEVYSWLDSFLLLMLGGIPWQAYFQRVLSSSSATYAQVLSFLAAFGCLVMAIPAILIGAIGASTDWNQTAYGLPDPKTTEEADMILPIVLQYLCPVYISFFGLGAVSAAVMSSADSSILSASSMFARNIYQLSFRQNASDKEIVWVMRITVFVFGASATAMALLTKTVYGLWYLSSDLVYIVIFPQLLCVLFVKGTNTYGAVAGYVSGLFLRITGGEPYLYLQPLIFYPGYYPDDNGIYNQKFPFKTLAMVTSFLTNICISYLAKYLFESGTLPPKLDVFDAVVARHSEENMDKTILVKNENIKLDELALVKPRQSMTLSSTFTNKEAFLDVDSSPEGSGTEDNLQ

[7] = test system: Streptococcus sp. 'group A'; assay: Streptococcus pyogenes SK(-)GAS viability under kanamycin – luminescence, BacTiterGlo, confirmation, counter-screen for streptokinase expression inhibitor project, dose response (AID 1900); assay type: functional, organism-based
Streptokinase A = molecular target: T4, Streptokinase A (Streptococcus pyogenes serotype M1, UniProt P10520); assay: viability-normalized secreted streptokinase activity reduction – plasminogen activation absorbance, OD405, dose response (AID 1914); assay type: functional, Streptococcus pyogenes M1 GAS;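 note: secreted streptokinase activity via plasminogen activation per viability signal from cell pellet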
T4 sequence (P10520 whole entry): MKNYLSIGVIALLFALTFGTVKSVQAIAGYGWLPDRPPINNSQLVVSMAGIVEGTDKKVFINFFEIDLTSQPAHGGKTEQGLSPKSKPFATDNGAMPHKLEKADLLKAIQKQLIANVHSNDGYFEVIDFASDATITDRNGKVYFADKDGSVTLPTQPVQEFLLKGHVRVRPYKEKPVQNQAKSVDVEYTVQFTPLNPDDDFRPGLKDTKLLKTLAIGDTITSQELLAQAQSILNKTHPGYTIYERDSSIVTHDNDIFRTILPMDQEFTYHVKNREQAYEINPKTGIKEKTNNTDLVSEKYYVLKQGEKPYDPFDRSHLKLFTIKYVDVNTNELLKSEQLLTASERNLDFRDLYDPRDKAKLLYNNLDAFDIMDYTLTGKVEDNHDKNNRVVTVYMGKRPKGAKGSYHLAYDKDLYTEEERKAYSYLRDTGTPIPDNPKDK

Streptococcus = assay: GAS UMAA2166 growth inhibition – luminescence, BacTiterGlo, counter-screen for streptokinase expression inhibitor project, dose response (AID 1915); assay type: functional, organism-based;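 note: potency for reduction of bacterial viability or growth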
[8] = Luminescence Cell-Based Dose Retest to Confirm Inhibitors of Cancer Stem Cells. [Related pubchem assays (depositor defined):AID2717, AID2721]; assay type: functional; settings: Homo sapiens
[9] = molecular target: Glycogen synthase kinase-3 alpha (Homo sapiens, UniProt P49840); assay: Inhibition of Human GSK-3 alpha Activity Measured in Biochemical System Using Microfluidics - 2063-06_Inhibitor_Dose_DryPowder_Activity_Set2. [Related pubchem assays (depositor defined):AID2709]
Sequence of Glycogen synthase kinase-3 alpha (P49840 whole entry): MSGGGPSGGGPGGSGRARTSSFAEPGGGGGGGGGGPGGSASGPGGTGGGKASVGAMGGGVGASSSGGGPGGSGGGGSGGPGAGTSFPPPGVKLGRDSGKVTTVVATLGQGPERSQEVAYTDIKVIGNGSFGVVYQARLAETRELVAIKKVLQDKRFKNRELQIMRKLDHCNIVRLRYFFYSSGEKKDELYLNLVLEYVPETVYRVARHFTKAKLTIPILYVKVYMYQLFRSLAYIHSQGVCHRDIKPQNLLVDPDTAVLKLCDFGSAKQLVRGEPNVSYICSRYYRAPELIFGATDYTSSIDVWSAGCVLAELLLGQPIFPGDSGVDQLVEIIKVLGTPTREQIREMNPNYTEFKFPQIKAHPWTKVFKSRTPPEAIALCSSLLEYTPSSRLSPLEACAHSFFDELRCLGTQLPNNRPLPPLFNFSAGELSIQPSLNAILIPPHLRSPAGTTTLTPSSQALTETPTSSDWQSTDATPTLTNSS

[10] = molecular target: Glycogen synthase kinase-3 beta (Homo sapiens, UniProt P49841); assay: Inhibition of Human GSK-3 beta Activity Measured in Biochemical System Using Microfluidics - 2063-05_Inhibitor_Dose_DryPowder_Activity_Set2. [Related pubchem assays (depositor defined):AID2709]
Sequence of Glycogen synthase kinase-3 beta (P49841 whole entry): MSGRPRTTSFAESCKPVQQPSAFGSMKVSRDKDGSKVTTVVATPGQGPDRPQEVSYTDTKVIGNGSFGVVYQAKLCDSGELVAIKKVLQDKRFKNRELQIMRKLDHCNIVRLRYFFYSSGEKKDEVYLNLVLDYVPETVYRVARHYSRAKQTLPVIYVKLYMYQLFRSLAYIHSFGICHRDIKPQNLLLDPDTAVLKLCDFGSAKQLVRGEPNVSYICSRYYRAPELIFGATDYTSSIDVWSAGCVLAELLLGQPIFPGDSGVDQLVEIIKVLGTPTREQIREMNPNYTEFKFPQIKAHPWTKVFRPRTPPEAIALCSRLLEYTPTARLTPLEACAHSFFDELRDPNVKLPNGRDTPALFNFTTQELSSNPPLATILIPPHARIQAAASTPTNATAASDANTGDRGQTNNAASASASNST

[11] = molecular target: Cyclin-dependent kinase 5/CDK5 activator 1 (Homo sapiens, UniProt Q00535); assay: human CDK5 activity blockade – biochemical, microfluidic mobility shift, dry powder, selectivity assay for GSK-3 alpha inhibitor project, dose response (AID 588430)
Sequence of Cyclin-dependent kinase 5/CDK5 activator 1 (Q00535 whole entry): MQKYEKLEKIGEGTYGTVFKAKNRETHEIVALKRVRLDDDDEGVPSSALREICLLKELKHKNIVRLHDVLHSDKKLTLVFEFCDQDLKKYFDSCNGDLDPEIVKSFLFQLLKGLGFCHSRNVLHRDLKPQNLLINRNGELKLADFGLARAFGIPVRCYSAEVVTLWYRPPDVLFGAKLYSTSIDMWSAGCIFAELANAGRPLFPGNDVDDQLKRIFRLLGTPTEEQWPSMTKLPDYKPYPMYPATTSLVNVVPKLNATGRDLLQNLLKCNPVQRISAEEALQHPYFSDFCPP
Sequence of Cyclin-dependent kinase 5/CDK5 activator 1 (Q15078 whole entry, further chain): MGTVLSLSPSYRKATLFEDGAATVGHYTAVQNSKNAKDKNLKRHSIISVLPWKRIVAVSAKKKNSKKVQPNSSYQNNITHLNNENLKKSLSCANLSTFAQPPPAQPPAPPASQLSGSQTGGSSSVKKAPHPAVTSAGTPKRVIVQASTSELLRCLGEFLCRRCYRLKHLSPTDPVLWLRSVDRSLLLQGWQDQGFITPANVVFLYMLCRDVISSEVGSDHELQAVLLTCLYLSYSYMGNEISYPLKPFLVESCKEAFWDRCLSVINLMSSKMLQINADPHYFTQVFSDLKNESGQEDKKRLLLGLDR

Activin receptor type-1 = Activin receptor type-1 (Homo sapiens, UniProt Q04771); assay: Navigating the Kinome. Panel member name: ACVR1; assay type: functional
Sequence of Activin receptor type-1 (Q04771 whole entry): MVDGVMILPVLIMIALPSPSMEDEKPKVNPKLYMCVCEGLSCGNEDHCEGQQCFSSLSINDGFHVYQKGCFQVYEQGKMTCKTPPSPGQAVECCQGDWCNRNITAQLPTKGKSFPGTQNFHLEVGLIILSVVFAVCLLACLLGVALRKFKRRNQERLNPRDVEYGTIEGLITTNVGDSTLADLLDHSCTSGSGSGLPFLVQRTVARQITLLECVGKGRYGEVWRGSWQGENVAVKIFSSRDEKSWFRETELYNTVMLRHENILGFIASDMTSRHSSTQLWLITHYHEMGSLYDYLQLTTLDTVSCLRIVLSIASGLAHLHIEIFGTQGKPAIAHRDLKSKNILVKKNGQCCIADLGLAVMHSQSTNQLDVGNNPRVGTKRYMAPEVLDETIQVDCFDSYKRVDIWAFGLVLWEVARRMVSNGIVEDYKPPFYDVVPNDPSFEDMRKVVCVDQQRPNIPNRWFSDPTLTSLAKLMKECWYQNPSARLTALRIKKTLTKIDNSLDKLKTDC

[12] = molecular target: Dual specificity protein kinase CLK4 (Homo sapiens, UniProt Q9HAZ1); assay type: functional
Sequence of Dual specificity protein kinase CLK4 (Q9HAZ1 whole entry): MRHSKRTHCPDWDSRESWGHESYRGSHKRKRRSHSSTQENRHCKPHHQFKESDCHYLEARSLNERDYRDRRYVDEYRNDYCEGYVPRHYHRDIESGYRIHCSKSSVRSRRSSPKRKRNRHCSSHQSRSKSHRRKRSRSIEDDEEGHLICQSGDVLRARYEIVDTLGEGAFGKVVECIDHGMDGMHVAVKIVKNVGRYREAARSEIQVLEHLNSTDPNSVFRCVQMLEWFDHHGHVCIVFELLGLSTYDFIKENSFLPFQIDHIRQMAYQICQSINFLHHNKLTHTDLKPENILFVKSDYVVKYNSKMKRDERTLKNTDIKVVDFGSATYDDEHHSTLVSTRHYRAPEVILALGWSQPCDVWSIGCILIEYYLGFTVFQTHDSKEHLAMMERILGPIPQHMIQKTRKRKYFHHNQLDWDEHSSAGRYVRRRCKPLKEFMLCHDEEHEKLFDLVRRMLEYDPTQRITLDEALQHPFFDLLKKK

For `CCc1cc2c(SCC(=O)N(CC)c3c(N)n(Cc4ccccc4)c(=O)[nH]c3=O)ncnc2s1`, the IC50 (CHO-K1) was > 66.2 µM (inactive), the IC50 [1] was > 49.8 µM (inactive) and the IC50 [2] was 0.34 µM (active). The IC50 [3] was 6.12 µM (active), the IC50 (Orexin receptor type 2 [4]) was 31.5 µM (inactive) and the IC50 (Orexin receptor type 2 [5]) was 1.71 µM (active).

With `c1ccc(Cn2c[n+](Cc3ccccc3)c3ccccc32)cc1` the EC50 [6] was 5.76 µM (active).

For `Nc1nc(Nc2ccccc2)nc(NC2CCCCC2)c1[N+](=O)[O-]`, the EC50 [7] was 6.85 µM (active), the EC50 (Streptokinase A) was > 150 µM (not active) and the EC50 (Streptococcus) was 8.07 µM (active). The AC50 [8] was 4.62 µM (active), the AC50 [9] was 2.6 µM (active) and the AC50 [10] was 1.04 µM (active). For the same molecule, the AC50 [11] was 2.36 µM (active).

For `O=C(Nc1cccc(C(F)(F)F)n1)Nc1ccnc2cc(F)ccc12`, the Ki (Activin receptor type-1) was 1.26 µM (active) and the Ki [12] was 2.51 µM (active).
